Experimental data published in patent publication US8580957B2, “Thetrahydroquinolines derivatives as bromodomain inhibitors” (GlaxoSmithKline LLC, priority 2009, dated 2013).
Counter-ions that a name gives are not always drawn.

Test system: LPS induced IL-6 secretion from whole blood
Assay: Measurement of LPS Induced IL-6 Secretion from Whole Blood
Type: cell-based
Conditions: LPS 200 ng/ml, 24 hours, read-out: pIC50 (IL-6 levels) (converted)
Experimental: Measurement of LPS Induced IL-6 Secretion from Whole Blood
(§1) Activation of monocytic cells by agonists of toll-like receptors such as bacterial lipopolysaccharide (LPS) results in production of key inflammatory mediators including IL-6. Such pathways are widely considered to be central to the pathophysiology of a range of auto-immune and inflammatory disorders.
Compounds to be tested are diluted to give a range of appropriate concentrations of which 1 ul of the diluted stocks is added to a 96 well plate. Following addition of whole blood (130 ul) the plates are incubated at 37 degrees (5% CO2) for 30 min before the addition of 10 ul of 2.8 ug/ml LPS, diluted in complete RPMI 1640 (final concentration=200 ng/ml), to give a total volume of 140 ul per well. After further incubation for 24 hours at 37 degrees, 140 ul of PBS are added to each well. The plates are sealed, shaken for 10 minutes and then centrifuged (2500 rpm×10 min). 100 ul of the supernatant are removed and IL-6 levels assayed by immunoassay (typically by MesoScale Discovery technology) either immediately or following storage at −20 degrees. Concentration response curves for each compound was generated from the data and an IC50 value was calculated.

Question: For `CNCCn1cc(-c2ccc3c(c2)[C@H](Nc2ncccn2)C[C@H](C)N3C(C)=O)cn1` [Example 153, (2S,4R)-1-Acetyl-2-methyl-6-{1-[2-(methylamino)ethyl]-1H-pyrazol-4-yl}-N-2-pyrimidinyl-1,2,3,4-tetrahydro-4-quinolinamine hydrochloride], which IC50 is on record?
Answer: ≤ 10 µM

Question: How did the IC50 turn out when `CC(=O)N1c2ccc(-c3ccc(C(=O)O)cc3)cc2[C@H](Nc2ccc(C)cn2)C[C@@H]1C` [Example 126, 4-{(2S,4R)-1-Acetyl-2-methyl-4-[(5-methyl-2-pyridinyl)amino]-1,2,3,4-tetrahydro-6-quinolinyl}benzoic acid] was run?
Answer: > 10 µM

Question: `CC(=O)N1c2ccc(-n3cnc(C)c3)cc2[C@H](Nc2ccc(C)cn2)C[C@@H]1C` [Example 190] was tested. Which IC50 did it give?
Answer: > 10 µM

Question: `CNCCn1cc(-c2ccc3c(c2)[C@H](Nc2ccc(C)cn2)C[C@H](C)N3C(C)=O)cn1` [Example 155, (2S,4R)-1-Acetyl-2-methyl-6-{1-[2-(methylamino)ethyl]-1H-pyrazol-4-yl}-N-(5-methyl-2-pyridinyl)-1,2,3,4-tetrahydro-4-quinolinamine hydrochloride] was tested. Which IC50 did it give?
Answer: ≤ 10 µM

Test system: TNFα levels in LPS stimulated whole blood
Assay: LPS Stimulated Whole Blood Measuring TNFα Levels Assay
Type: cell-based
Conditions: LPS 200 ng/ml, 24 hours, read-out: pIC50 (TNFα levels) (converted)
Experimental: LPS Stimulated Whole Blood Measuring TNFα Levels Assay
as §1, with “TNFα.” for “IL-6.”
Compounds to be tested are diluted to give a range of appropriate concentrations and 1 ul of the dilution stocks is added to wells of a 96 plate. Following addition of whole blood (130 ul) the plates are incubated at 37 degrees (5% CO2) for 30 min before the addition of 10 ul of 2.8 ug/ml LPS, diluted in complete RPMI 1640 (final concentration=200 ng/ml), to give a total volume of 140 ul per well. After further incubation for 24 hours at 37 degrees, 140 ul of PBS are added to each well. The plates are sealed, shaken for 10 minutes and then centrifuged (2500 rpm×10 min). 100 ul of the supernatant are removed and TNFα levels assayed by immunoassay (typically by MesoScale Discovery technology) either immediately or following storage at −20 degrees. Dose response curves for each compound was generated from the data and an IC50 value was calculated.

Question: With `CC[C@@H]1C[C@H](Nc2ccccc2)c2cc(-c3ccc(CN4CCCCC4)cc3)ccc2N1C(C)=O` (relative stereo) [Example 163, (cis)-1-Acetyl-2-ethyl-N-phenyl-6-[4-(1-piperidinylmethyl)phenyl]-1,2,3,4-tetrahydro-4-quinolinamine formate salt] as the compound, how does the IC50 read?
Answer: ≤ 10 µM

Question: `CC(=O)N1c2ccc(-c3ccc(CN4CCCCC4)cc3)cc2[C@@H](Nc2ccc(C)cn2)C[C@H]1C` (racemic) [Example 135, (cis)-1-Acetyl-2-methyl-N-(5-methyl-2-pyridinyl)-6-[4-(1-piperidinylmethyl)phenyl]-1,2,3,4-tetrahydro-4-quinolinamine formate salt] was tested. Which IC50 did it give?
Answer: ≤ 10 µM

Question: `CNCc1ccc(-c2ccc3c(c2)[C@H](Nc2ccc(F)cn2)C[C@H](C)N3C(C)=O)cc1` [Example 157, (2S,4R)-1-Acetyl-N-(5-fluoro-2-pyridinyl)-2-methyl-6-{4-[(methylamino)methyl]phenyl}-1,2,3,4-tetrahydro-4-quinolinamine hydrochloride] was tested. Which IC50 did it give?
Answer: ≤ 10 µM

Question: `CC(=O)N1c2ccc(-c3ccc(CN4CCCCC4)cc3)cc2[C@@H](Nc2ccc(Cl)cn2)C[C@H]1C` (racemic) [Example 136, (cis)-1-Acetyl-N-(5-chloro-2-pyridinyl)-2-methyl-6-[4-(1-piperidinylmethyl)phenyl]-1,2,3,4-tetrahydro-4-quinolinamine formate salt] was tested. Which IC50 did it give?
Answer: ≤ 10 µM

Question: With `CC(=O)N1c2ccc(-c3ccc(C(=O)O)cc3)cc2[C@@H](Nc2cccc(F)c2)C[C@H]1C` [Example 179] as the compound, how does the IC50 read?
Answer: ≤ 10 µM

Question: How did the IC50 turn out when `CC(=O)N1c2ccc(-c3ccc(CN4CCCCC4)cc3)cc2[C@@H](Nc2ccncc2)C[C@H]1C` (racemic) [Example 138, (cis)-1-Acetyl-2-methyl-6-[4-(1-piperidinylmethyl)phenyl]-N-4-pyridinyl-1,2,3,4-tetrahydro-4-quinolinamine trifluoroacetate] was run?
Answer: ≤ 10 µM

Question: How did the IC50 turn out when `CCC[C@@H]1C[C@H](Nc2ccc(C)cc2)c2cc(-c3ccc(CN4CCCCC4)cc3)ccc2N1C(C)=O` [Example 189] was run?
Answer: ≤ 10 µM

Question: Which IC50 does the source give for `CC(=O)N1c2ccc(-c3ccc(CN4CCCCC4)cc3)cc2[C@@H](Nc2ccccn2)C[C@H]1C` (racemic) [Example 133, (cis)-1-Acetyl-2-methyl-6-[4-(1-pipendinylmethyl)phenyl]-N-2-pyridinyl-1,2,3,4-tetrahydro-4-quinolinamine formate salt] here?
Answer: ≤ 10 µM

Question: `CC(=O)N1c2ccc(-c3ccc(N)nc3)cc2[C@@H](Nc2ccccc2)C[C@H]1C` (racemic) [Example 132, (cis)-1-Acetyl-6-(6-amino-3-pyridinyl)-2-methyl-N-phenyl-1,2,3,4-tetrahydro-4-quinolinamine hydrochloride] was tested. Which IC50 did it give?
Answer: ≤ 10 µM
